One experiment has as its target 5-HT6 receptors (Rattus norvegicus, UniProt P31388). The conditions noted are these: Roth et al, 1994; cited from earlier work.
Experiment [1] can be described thus: Feeding study: olanzapine-induced weight-gain and hyperphagia in rats on a high-fat diet. The note with it: olanzapine 3 mg/kg po; for Mean body weight (g) Day 15: after 14 days of treatment, high-fat diet; for Mean body weight (g) Day 15 / Mean body weight (g) Day 0: n=10; for Mean body weight (g) Day 0: before treatment (baseline). It counts as in vivo, female Sprague-Dawley rats. As for the experimental part: The experiment was performed on 40 female Sprague-Dawley rats (originally in the weight range 250-300 g). The animal room was maintained at a temperature of 21±4°C and 55±20% humidity and on a reversed phase light-dark cycle (lights off for 8 h from 09.30-17.30 h) during which time the room was illuminated by red light. Animals had free access to powdered high fat diet (VRF1 plus 20% lard). The diet was contained in a glass feeding jar with an aluminium lid with a 3-4 cm hole cut in it to allow access to the food. Animals were housed singly in polypropylene cages with wire grid floors to enable the food intake of each rat to be recorded. Polypropylene trays containing cage pads were placed beneath each cage to detect any food spillage. Animals were accustomed to these new conditions (individual housing and the wire-grid floor cages) for at least 14 days before the start of the baseline readings.
Approximately a week before the start of the study, animals were weighed (to the nearest 0.1 g using an electronic top-pan balance) and allocated into 4 weight-matched treatment groups, each containing 10 animals. Following a 7 day baseline run-in period, during which the animals were dosed orally with vehicle (0.5% hydroxypropylmethylcellulose), to acclimatise them to dosing/handling, the rats were given treatments, described in the Table below, for 14 days.
Food intake and body weight were measured once daily. Variations in body weight were accounted for by expressing the food intake results in terms of g/kg rat weight.
(§1) Statistical comparisons between the body weights of the different treatment groups were made by analysis of covariance followed by multiple t tests (two-tailed) to compare each treatment group with the vehicle-treated controls. For the body weight data (body weights recorded each day), the weights of the animals on Day 1 (ie immediately before the first drug treatment) were used as the covariate. Thus, means were adjusted for differences in body weight between the groups on Day 1 and standard errors of the mean (SEM) were calculated from the residuals of the statistical model. All mean body weight values on Day 1 are identical (and SEM are therefore zero) because the analysis of covariance adjusts them all to equal the 'grand mean' of the values of this day.
Statistical comparisons between the food intakes of the different treatment groups were made by analysis of covariance followed by multiple t tests (two-tailed) to compare each treatment group with the vehicle-treated controls. Food intake of the animals at baseline (ie average of Day -6 to Day 0) was used as the covariate. Standard errors of the mean (SEM) were calculated from the residuals of the statistical model.
Analysis of body weights and average daily food intakes were also performed to analyse cumulative food intake and body weight changes. Analysis of covariance followed by post-hoc Student's t-test (two-tailed) was used to compare the average daily food intakes over Week 1 and Week 2 for COMPOUND 1 treatment group versus (a) the vehicle-treated and (b) the olanzapine-treated groups of rats. The body weights of all groups of rats before and after treatment were statistically compared pair-wise using Student's paired t-test (two-tailed).

A further experiment addresses T1, human 5-HT6 receptors (Homo sapiens, UniProt P50406).
T1 construct: purchased Perkin-Elmer; host or cells: HEK-293 (stably transfected), membranes
Put plainly: Radiolabelled ligand-receptor binding ([3H]-LSD) on cloned/transfected human 5-HT6 receptors. The conditions noted are these: equated from the pKi value. As for the experimental part: To investigate the binding properties of 5-HT6 receptor ligands to human 5-HT6 receptors, transfected HEK-293 membranes from Perkin-Elmer and [3H]-LSD (NEN), as the radioligand, were used. The assay was carried out in 96-well plates with a total reaction volume of 200 µl, containing 100 µl of membrane suspension (35 µg protein/well), 10 µl of [3H]-LSD (2.7 nM) in either the absence or presence of 90 µl of either buffer or methiothepin (5 µM) for total and non-specific binding, respectively. Binding buffer contained 50 mMTris-HCl, 10 mM MgCl2 and 0.5 mM EDTA at pH 7.4. Plates were incubated at 37 °C for 60 minutes. After the incubation period, 170 µl of incubate were transferred to MultiScreen HTS, FC plates (Millipore), filtered and plates were washed 3 times with ice-cold 50mM Tris-HCl (pH 7.4). Filters were dried and counted at approximately 40% efficiency in a MicroBeta scintillation counter (Perkin-Elmer) using 25 µl per well of EcoScint liquid scintillation cocktail.

Experiment [2] is described as follows: Feeding study in dietary-induced obese (DIO) rats, comparison with sibutramine. It counts as in vivo, female Wistar rats. The conditions noted are these: for body weight compared with the vehicle-treated controls / daily food intake: 28 days; for body weight compared with the vehicle-treated controls / daily food intake / days on which the decreases of food intake were statistically significant versus the vehicle-treated control group / weighed less than the vehicle-treated controls: COMPOUND 1 30 mg/kg po bid; for body weight compared with the vehicle-treated controls: sibutramine 5 mg/kg/day po once daily (Figure 4); for daily food intake: sibutramine 5 mg/kg/day po once daily (Figure 5); for days on which the decreases of food intake were statistically significant versus the vehicle-treated control group / weighed less than the vehicle-treated controls: sibutramine 5 mg/kg/day po; for weighed less than the vehicle-treated controls: end of treatment period (Day 28); for weight reductions: over the 28 daily treatment period, DIO rat (Figure 4). How it is done: The experiment was performed on female Wistar rats (originally in the weight range 250-300 g). The rats were housed in pairs in polypropylene cages with solid floors and sawdust bedding at a temperature of 21±4°C and 55±20% humidity. Animals were maintained on a reverse phase light-dark cycle (lights off for 8 h from 09.30-17.30 h) during which time the room was illuminated by red light. Animals had free access to powdered high fat diet (VRF1 plus 20% lard), ground chocolate, ground peanuts and tap water at all times. The three different diets were contained in separate glass feeding jars with aluminum lids with a 3-4 cm hole cut in them to allow access to the food. Animals were housed in pairs for twelve weeks for the induction of obesity. Animals were then housed singly in polypropylene cages with wire grid floors to enable the food intake of each rat to be recorded. Polypropylene trays with cage pads were placed beneath each cage to detect any food spillage. Animals were accustomed to these new conditions (individual housing and the wire-grid floor cages) for at least 14 days before the start of the baseline readings.
At the start of the first DIO study, animals were weighed (to the nearest 0.1 g using an electronic top-pan balance) and allocated into 3 weight-matched treatment groups, each containing 10 animals. Following a 7 day baseline run-in period, during which time all animals were dosed orally once a day with vehicle (0.5% hydroxypropylmethylcellulose), rats were dosed for 28 days with vehicle at 0 and 6 h or test compound either COMPOUND 1 (30 mg/kg, p.o., twice a day at 0 and 6 h) or sibutramine (5 mg/kg, p.o. at 0 h / vehicle p.o. at 6 h). The first compound dose was given at the onset of the 8 h dark period (0 h). This strategy was taken to maximise the impact of any inhibitory effect of the compounds on food intake as rats are predominantly nocturnal feeders. Six hours later, animals were dosed again with either vehicle or compounds.
Food intake and body weight were measured once daily. Variations in body weight and energy levels of the different types of food were accounted for by expressing the food intake results in terms of kJ/kg rat weight.
as §1, with “body weights and daily food intakes of the” for “body weights of the”, “treatment groups have been made by” for “treatment groups were made by”, “followed by Dunnett's test to compare” for “followed by multiple t tests (two-tailed) to compare”, “(body weights each day),” for “(body weights recorded each day),”

Experiment [3] concerns the target rat variant of the 5-HT6 receptor (Rattus norvegicus, UniProt P31388). The note with it: Romero et al, 2006; cited from earlier work.
The target in experiment [4] is human variant of the 5-HT6 receptor (Homo sapiens, UniProt P50406). The note with it: Romero et al, 2006; cited from earlier work.
For experiment [5] the following is noted: repeated sibutramine administration, 14 days (Figure 7); cited from earlier work.
For experiment [6] the following is noted: 5-HT6 antagonists; Svartengren et al, 2004; Shacham et al, 2006; cited from earlier work.

Chain of 5-HT6 receptors (P31388 whole entry): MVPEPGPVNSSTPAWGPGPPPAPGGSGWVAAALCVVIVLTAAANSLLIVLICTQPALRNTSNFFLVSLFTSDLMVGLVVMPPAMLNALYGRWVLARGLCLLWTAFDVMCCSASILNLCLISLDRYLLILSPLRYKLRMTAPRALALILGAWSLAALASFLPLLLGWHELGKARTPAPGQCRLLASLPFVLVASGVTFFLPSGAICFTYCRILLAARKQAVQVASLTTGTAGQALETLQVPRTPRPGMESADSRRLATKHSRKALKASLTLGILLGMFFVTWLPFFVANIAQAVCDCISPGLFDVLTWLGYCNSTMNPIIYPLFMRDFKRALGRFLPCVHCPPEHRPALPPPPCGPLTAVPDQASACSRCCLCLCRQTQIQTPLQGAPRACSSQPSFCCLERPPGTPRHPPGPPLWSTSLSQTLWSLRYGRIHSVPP
T1 sequence (P50406 whole entry): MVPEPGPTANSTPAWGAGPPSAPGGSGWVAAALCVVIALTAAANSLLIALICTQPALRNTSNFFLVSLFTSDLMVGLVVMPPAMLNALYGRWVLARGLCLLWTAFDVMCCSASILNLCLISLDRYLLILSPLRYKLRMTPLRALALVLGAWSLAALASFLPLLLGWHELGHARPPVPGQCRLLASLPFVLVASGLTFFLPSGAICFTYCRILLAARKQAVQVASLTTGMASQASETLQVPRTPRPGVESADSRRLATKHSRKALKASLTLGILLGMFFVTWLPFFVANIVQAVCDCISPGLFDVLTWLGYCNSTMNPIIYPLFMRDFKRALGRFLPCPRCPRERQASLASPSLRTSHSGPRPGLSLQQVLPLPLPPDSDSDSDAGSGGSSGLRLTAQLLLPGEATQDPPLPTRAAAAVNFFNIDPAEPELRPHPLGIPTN

For `OC1(c2ccc(Cl)c(C(F)(F)F)c2)CCN(CCCC(c2ccc(F)cc2)c2ccc(F)cc2)CC1` [penfluridol], the “affinity for this 5-HT receptor subtype (5-HT6)” value (“affinity” below) at 5-HT6 receptors was “no relevant affinity”.

With `Cc1cc2c(s1)Nc1ccccc1N=C2N1CCN(C)CC1` [Olanzapine], in experiment [1] (COMPOUND 1 30 mg/kg po bid), the “Mean body weight (g) Day 15” value came out at 333.0 ± 8.2 g and the “Mean body weight (g) Day 0” value was 296.9 ± 7.2 g.

`CN(C)CCc1c[nH]c2ccc(NS(=O)(=O)c3ccc4c(Cl)cccc4c3)cc12` [COMPOUND 1, 5-Chloro-naphthalene-2-sulfonic acid [3-(2-dimethylamino-ethyl)-1H-indol-5-yl]-amide]: the Ki at human 5-HT6 receptors worked out at 0.74 nM. For the same compound, the “body weight compared to the vehicle + vehicle-treated control” value in experiment [1] (14 days, COMPOUND 1 30 mg/kg po bid, high-fat diet (Figure 1)) was “gradual decrease in body weight”. Moreover, the “daily food intake compared to the vehicle-treated controls” value in experiment [1] (14 days, COMPOUND 1 30 mg/kg po bid, high-fat diet (Figure 2)) is on record as “markedly reduced their food intakes”. The “cumulative intake of food over the first week compared to the vehicle controls” value in experiment [1] (Week 1, COMPOUND 1 30 mg/kg po bid (Figure 3)) is “statistically lower (p < 0.001)”. Moreover, in experiment [1] (COMPOUND 1 30 mg/kg po bid), the “Mean body weight (g) Day 15” value came out at 289.5 ± 6.1 g and the “Mean body weight (g) Day 0” value came to 292.8 ± 7.2 g. For the same compound, in experiment [2], the “body weight compared with the vehicle-treated controls” value was “marked and sustained decrease in the body weights”; the daily food intake entry is “reduction in daily food intake”; the “days on which the decreases of food intake were statistically significant versus the vehicle-treated control group” value is “Day 2 to Day 8”; the “weighed less than the vehicle-treated controls” value turned out to be 15.6%. The weight reductions entry in experiment [2] is on record as “greater than 10%”. Further, the “functionality at the 5-HT6 receptor” value in experiment [3] was “agonist”. Further, the “functionality at the 5-HT6 receptor” value in experiment [4] is “agonist”.

On to `C[C@@H]1CN(CCCn2c3ccccc3c3ccccc32)C[C@H](C)N1` [rimcazole], for which the “affinity” value on 5-HT6 receptors is “no relevant affinity”.

With `CC(C)CC(N(C)C)C1(c2ccc(Cl)cc2)CCC1` (stereo not shown) [sibutramine], in experiment [2], the “body weight compared with the vehicle-treated controls” value is on record as “significant body weight-loss”, the daily food intake entry is “significant reduction of food intake”, the “days on which the decreases of food intake were statistically significant versus the vehicle-treated control group” value is recorded as “Day 1 to Day 5” and the “weighed less than the vehicle-treated controls” value turned out to be 10.8%. Besides, in experiment [2], the weight reductions entry is given as “greater than 10%”. The “effect on the weight-gain evoked by olanzapine” value in experiment [5] is given as “only partially to attenuate the weight-gain”.

Regarding `COc1cc(Cl)cc(C(C)Nc2cc(N3CCNCC3)ccc2S(C)(=O)=O)c1OC.Cl` (stereo not shown) [PRX-07034], the “food intake and body weight in obese rodents” value in experiment [6] is “reduce food intake and produce sustained weight-loss”.

Consider `CCN1CCC[C@H]1CNC(=O)c1c(O)c(Cl)cc(Cl)c1OC` [raclopride], for which the “affinity” value at 5-HT6 receptors is “no relevant affinity”.

As usually defined, the Ki is a dissociation constant, usually derived from enzyme kinetics or from competition with a known ligand. Low values mean a stronger hold on the target, high ones a looser hold on the target.

These data come from patent publication EP2018861A1, “5HT6-Ligands such as sulfonamide derivatives in drug-induced weight-gain” (Laboratorios del Dr. Esteve S.A., priority 2007, dated 2009).
